Marks after values point to notes of the source that are not given here.
Assays:
[1] = tested on: alcohol dehydrogenase from Pichia pastoris (PPADH); assay: biotransformation by purified PPADH with GDH co-factor regeneration, gas chromatography; format: biochemical; conditions: 2 hours reaction time
[2] = target: T1, alcohol dehydrogenase from Pichia pastoris (PPADH) (Komagataella phaffii, UniProt C4R4L0); assay: photometric assay, oxidation of alcohols by purified PPADH (NADP+, 340 nm); format: biochemical, Pichia pastoris GS 115; conditions: for specific activity: purified PPADH, 10 mM substrate, 0.2 mM NADP+, tris HCl pH 9, 25°C; for relative activity: 6.6 U/mg set to 100%
Protocol: In a first step, crude extract containing recombinant alcohol dehydrogenase from Pichia pastoris via cell disruption of E. coli BL21(DE3) overexpressing in vector pET28a-PPADH carrying an N-terminal 6xHis tag. Cells were resuspended in 10 mM tris HCl buffer (pH 7) to yield a 25% cell suspension and were disrupted by sonification under cooling. Three cycles of 2 min of 25% power output followed by 1 min cooling were used. After repeated centrifugation a cell-free crude extract was obtained. Afterwards the PPADH was purified as described in example 3c).
Determination of the enzymatic activity of the purified PPADH can be determined via a oxidation or reduction reaction. For determination of the reduction the following compounds were used: tris HCl buffer (100 mM, pH 7), 0.2 mM NADPH, 10 mM substrate selected from the aldehydes and ketones as given in Table 2 and 10 µl enzyme (purified PPADH). For determination of the oxidation the following compounds were used: tris HCl buffer (100 mM, pH 9), 0.2 mM NADP^+, 10 mM substrate selected from the alcohols as given in Table 3 and 10 µl enzyme (purified PPADH). The reaction was performed in 1 cm-cuvettes. The compounds were mixed in the cuvette used for the experiment, which was placed in the photometer and data recording was started. The enzyme solution was added only immediately before the start of the measurement. The activity of the enzyme was determined by photometric detection of the concentration of NADPH after a certain time interval. Measurement was carried out at a temperature of 25°C, a wavelength of 340 nm and over a time interval of 1 min.

[3] = target: T1, alcohol dehydrogenase from Pichia pastoris (PPADH); assay: kinetic parameters of purified PPADH by photometry; format: biochemical, Pichia pastoris GS 115
Protocol: (§1) In order to determine the kinetic parameters of the recombinant PPADH, purified enzyme was manufactured as described in example 4b). Afterwards the described test for reductive activity was used. All parameters such as 100 mM tris HCl buffer (pH 7), 0.2 mM NADPH, and 10 µl enzyme (purified PPADH) were kept constant, except that concentration of substrate and concentration of co-factor were varied. The kinetic parameters were calculated using the software GraphPad Prism5 based on a non-linear ,fitting"-algorithm. Table 4: kinetic parameters of purified PPADH regarding benzaldehyde, racemic CF3-ketone as substrates and the co-factor NADPH determined by photometry

[4] = substrate: CC(=O)CC(O)(c1ccccc1)C(F)(F)F; assay: kinetic parameters of purified PPADH by photometry; format: biochemical, Pichia pastoris GS 115
Protocol: as §1

[5] = substrate: O=Cc1ccccc1; assay: kinetic parameters of purified PPADH by photometry; format: biochemical, Pichia pastoris GS 115; conditions: other: purified PPADH, tris HCl pH 7, non-linear fitting
Protocol: as §1

[6] = CF3-ketone derivatives, alcohol formed related to the reduction of (S)-ketone
[7] = acetophenone derivatives, related to the alcohol formed
[8] = other: purified PPADH, tris HCl pH 7, non-linear fitting

Question: Which results are given for `COC(C)(CC(C)=O)c1ccccc1` (racemic) [NOD-VI-405]?
Answer: level of turnover ([1]; CF3-ketone derivatives): +++ (+++ =20-55 %); turnover [1, 6]: 20.3%

Question: `CC(=O)CC(O)(c1ccc(Cl)cc1)C(F)(F)F` (racemic) [Nod362] was tested. Which level of turnover ([1]; CF3-ketone derivatives) did it give?
Answer: +++++ (+++++ = 75 - 100 %)

Question: What about the turnover ([1]; CF3-ketone derivatives) of the same molecule?
Answer: quant.

Question: For `CCC(O)CO` (stereo not drawn) [1,2-butanediol], which specific activity [2] is on record?
Answer: < 0.5 U/mg

Question: `CC(O)CO` (stereo not drawn) [1,2-propanediol] was tested. Which specific activity [2] did it give?
Answer: < 0.5 U/mg

Question: `CC(O)c1ccc(Cl)cc1` (stereo not drawn) [1-(4-chlorophenyl)ethanol] was tested. Which specific activity [2] did it give?
Answer: < 0.5 U/mg

Question: Which specific activity [2] does the source give for `C=CC(O)CC` (stereo not drawn) [1-penten-3-ol] here?
Answer: < 0.5 U/mg

Question: `O=C(c1ccccc1Br)C(F)(F)F` [2'-Bromo-2,2,2-trifluoroacetophenone] was tested. Which level of turnover ([1]; acetophenone derivatives) did it give?
Answer: + (+=1-5%)

Question: What about the turnover [1, 7] of the same molecule?
Answer: <5%

Question: How did the level of turnover ([1]; acetophenone derivatives) turn out when `COc1ccccc1C(C)=O` [2'-Methoxyacetophenone] was run?
Answer: + (+=1-5%)

Question: What about the turnover [1, 7] of the same molecule?
Answer: <5%

Question: What does the source list for `CC(=O)c1ccccc1Br` [2'-bromoacetophenone]?
Answer: level of turnover ([1]; acetophenone derivatives): + (+=1-5%); turnover [1, 7]: <5%

Question: `O=C(c1ccccc1)C(F)(F)F` [2,2,2-Trifluoroacetophenone] was tested. Which level of turnover ([1]; acetophenone derivatives) did it give?
Answer: +++ (+++=20-55%)

Question: And the turnover [1, 7]?
Answer: 24.2%

Question: `CC(O)C(C)O` (stereo not drawn) [2,3-butanediol] was tested. Which specific activity [2] did it give?
Answer: < 0.5 U/mg

Question: `O=C(CO)c1ccccc1` [2-Hydroxyacetophenone] was tested. Which level of turnover ([1]; acetophenone derivatives) did it give?
Answer: + (+=1-5%)

Question: And the turnover [1, 7]?
Answer: <5%

Question: For `COCC(=O)c1ccccc1` [2-Methoxyacetophenone], which level of turnover ([1]; acetophenone derivatives) is on record?
Answer: - (-=0-1%)

Question: And the turnover [1, 7]?
Answer: <1%

Question: For `OC1C=CCCC1` (stereo not drawn) [2-cyclohexen-1-ol], which specific activity [2] is on record?
Answer: < 0.5 U/mg

Question: For `CC(CO)c1ccccc1` (stereo not drawn) [2-phenyl-1-propanol], which specific activity [2] is on record?
Answer: < 0.5 U/mg

Question: `O=C(c1ccc(Cl)cc1)C(F)(F)F` [4'-Chloro-2,2,2-trifluoro acetophenone] was tested. Which level of turnover ([1]; acetophenone derivatives) did it give?
Answer: ++ (++=5-20%)

Question: What about the turnover [1, 7] of the same molecule?
Answer: 12.4%

Question: For `C[C@@H](O)c1ccccc1` [(R)-(+)-1-phenylethanol], which specific activity [2] is on record?
Answer: < 0.5 U/mg

Question: With `CCCCCC[C@@H](C)O` [(R)-(-)-2-octanol] as the molecule, how does the specific activity [2] read?
Answer: < 0.5 U/mg

Question: `C=CCC[C@@H](C)O` [(R)-(-)-5-hexen-2-ol] was tested. Which specific activity [2] did it give?
Answer: < 0.5 U/mg

Question: For `CC[C@H](N)CO` [(S)-(+)-2-amino-1-butanol], which specific activity [2] is on record?
Answer: < 0.5 U/mg

Question: Which specific activity [2] does the source give for `CC[C@H](C)O` [(S)-(+)-2-butanol] here?
Answer: < 0.5 U/mg

Question: What does the source list for `NC(=O)C1=CN([C@@H]2O[C@H](COP(=O)(O)OP(=O)(O)OC[C@H]3O[C@@H](n4cnc5c(N)ncnc54)[C@H](OP(=O)(O)O)[C@@H]3O)[C@@H](O)[C@H]2O)C=CC1` [NADPH]?
Answer: Vmax ([3]; tris HCl pH 7): 94.2 U/mg; kcat ([3]; tris HCl pH 7): 19.5 s⁻¹; Km ([3]; tris HCl pH 7, non-linear fitting): 48.3 µM

Question: `CC(=O)CC(O)(c1ccc(F)cc1)C(F)(F)F` (stereo not drawn) [Nod363 F4] was tested. Which level of turnover ([1]; CF3-ketone derivatives) did it give?
Answer: +++++ (+++++ = 75 - 100 %)

Question: And the turnover ([1]; CF3-ketone derivatives)?
Answer: quant.

Question: `CC(=O)CC(O)(c1ccc(C)cc1)C(F)(F)F` (stereo not drawn) [Nod364 F3-Enon] was tested. Which level of turnover ([1]; CF3-ketone derivatives) did it give?
Answer: +++++ (+++++ = 75 - 100 %)

Question: What about the turnover ([1]; CF3-ketone derivatives) of the same molecule?
Answer: quant.

Question: What does the source list for `COc1ccc(C(O)(CC(C)=O)C(F)(F)F)cc1` (stereo not drawn) [Nod365 F6]?
Answer: level of turnover ([1]; CF3-ketone derivatives): +++++ (+++++ = 75 - 100 %); turnover ([1]; CF3-ketone derivatives): quant.

Question: Which level of turnover ([1]; CF3-ketone derivatives) does the source give for `COc1ccccc1[C@@](O)(CC(C)=O)C(F)(F)F` [Nod-3d] here?
Answer: +++++ (+++++ = 75 - 100 %)

Question: And the turnover [1, 6]?
Answer: 75.8%

Question: How did the level of turnover ([1]; acetophenone derivatives) turn out when `CC(=O)c1ccccc1` [acetophenone] was run?
Answer: ++ (++=5-20%)

Question: What about the turnover [1, 7] of the same molecule?
Answer: 7.8%

Question: For `OCc1ccccc1` [benzylalcohol], which specific activity [2] is on record?
Answer: < 0.5 U/mg

Question: With `C[C@@H](CO)c1ccccc1` [compound 15] as the molecule, how does the relative activity [2] read?
Answer: 16.0%

Question: And the specific activity [2]?
Answer: 1.06 U/mg

Question: Which relative activity [2] does the source give for `OCCc1ccccc1Br` [compound 16] here?
Answer: 29.3%

Question: What about the specific activity [2] of the same molecule?
Answer: 1.94 U/mg

Question: For `CCCCO` [compound 17], which relative activity [2] is on record?
Answer: 16.7%

Question: And the specific activity [2]?
Answer: 1.11 U/mg

Question: Which relative activity [2] does the source give for `CCCC(C)CO` (stereo not drawn) [compound 18] here?
Answer: 30.9%

Question: And the specific activity [2]?
Answer: 2.04 U/mg

Question: How did the relative activity [2] turn out when `CCCC(C)O` (stereo not drawn) [compound 19] was run?
Answer: 38.3%

Question: And the specific activity [2]?
Answer: 2.53 U/mg

Question: With `C/C=C/C(C)O` (stereo not drawn) [compound 20] as the molecule, how does the relative activity [2] read?
Answer: 19.5%

Question: And the specific activity [2]?
Answer: 1.29 U/mg

Question: Which results are given for `CCCCC(C)O` (stereo not drawn) [compound 22]?
Answer: relative activity [2]: 54.9%; specific activity [2]: 3.62 U/mg

Question: What does the source list for `CCCC[C@H](C)O` [compound 23]?
Answer: relative activity [2]: 100.0%; specific activity [2]: 6.61 U/mg

Question: `C=CCC[C@H](C)O` [compound 24] was tested. Which relative activity [2] did it give?
Answer: 57.4%

Question: What about the specific activity [2] of the same molecule?
Answer: 3.79 U/mg

Question: With `CCCCC[C@H](C)O` [compound 25] as the molecule, how does the relative activity [2] read?
Answer: 31.6%

Question: And the specific activity [2]?
Answer: 2.09 U/mg

Question: What does the source list for `CCCCCCC(C)O` (stereo not drawn) [compound 26]?
Answer: relative activity [2]: 8.7%; specific activity [2]: 0.57 U/mg

Question: `CC(C)=CCCC(C)=CCO` [compound 27] was tested. Which relative activity [2] did it give?
Answer: 32.7%

Question: What about the specific activity [2] of the same molecule?
Answer: 2.16 U/mg

Question: Which relative activity [2] does the source give for `CC(C)=CCCC(C)=CCO` [compound 28] here?
Answer: 18.0%

Question: And the specific activity [2]?
Answer: 1.19 U/mg

Question: `OC1CCCCC1` [cyclohexanol] was tested. Which specific activity [2] did it give?
Answer: < 0.5 U/mg

Question: Which specific activity [2] does the source give for `C=CC(O)CCCCC` (stereo not drawn) [octen-3-ol] here?
Answer: < 0.5 U/mg

B1: alcohol dehydrogenase from Pichia pastoris (PPADH) (Komagataella phaffii GS115) (protein)
chain: MVSKVLLTGASGYIAQHITNELLSHGFKVIGTVRRQEQADQLHKQFSEESSVLQKDPSLLTYVLVPDIGASDAFDEVLKSTPDITYVLHTASPFIFNDDRALEDVYLKPAVEGTRNILSAIKKFANDSVKNVVVTSSFAAILNADKFEDKSFIHTEKVWNNNTWDQTKSGDRGVAYIVSKKEAEKAAWDFVEKEKPNFKLTTVNPPYVFGPQKFDASAKKESLNTSAEIVGSLLHTKYPSDDKLFDDPLNLSVDVRDVALYHVLPLLNADLASRRLLVVQSKFSAQRILNIINENFPELKGKIAVGKPEETARVEAIKGPEYNNSVTVGLTGVDPIPLEKTVVDSVKQILRANK
Question: With B1 as the molecule, how does the Km ([4]; other: corrected for 50% (S)-enantiomer in the racemic substrate, pH 7.0) read?
Answer: 899 µM

Question: What about the Km [4, 8] of the same molecule?
Answer: 1797.0* µM

Question: What about the Vmax [4, 8] of the same molecule?
Answer: 46.3 U/mg

Question: And the kcat [4, 8]?
Answer: 6.4 s⁻¹

Question: What about the kcat/Km [4, 8] of the same molecule?
Answer: 3.6* s^-1mM^-1

Question: What about the Km [5] of the same molecule?
Answer: 3034.0 µM

Question: What about the Vmax [5] of the same molecule?
Answer: 98.5 U/mg

Question: What about the kcat [5] of the same molecule?
Answer: 25.1 s⁻¹

Question: And the kcat/Km [5]?
Answer: 8300 M⁻¹ s⁻¹

From patent EP3222712A1, “ALCOHOL DEHYDROGENASE FROM PICHIA PASTORIS AND USE THEREOF” (priority 2016, dated 2017)
